Series [1] can be described thus: Aqueous solubility. The class given is physicochemical. The settings on record: water.
Series [2] in a line: Stability in serum. Conditions: 37°C; for relative serum stability: 100% FBS, 10 h. The format is in vitro ADME, bovine.
A short description of series [3]: Tetrazine cycloaddition kinetics with norbornene. The class given is physicochemical. The settings on record: PBS pH 7.4, 37°C, 5% DMSO, excess NB.
Series [4] is described as follows: Tetrazine cycloaddition kinetics with TCO. The class given is physicochemical. The settings on record: among tetrazines of this study.

The record followed here is publication PMC3254257 (Bioconjugate Chemistry, 2011).

Structures are written as SMILES.

`c1ccc(-c2nnc(-c3ccccc3)nn2)cc1` [3,6-diphenyl tetrazine, reference compound]: in series [1], the “aqueous solubility” value is “not soluble to any measurable amount”.
Consider `Cl.NCc1ccc(-c2nnc(-c3ccccn3)nn2)cc1` [Tetrazine 3, (4-(6-(Pyridin-2-yl)-1,2,4,5-tetrazin-3-yl)phenyl)methanamine hydrochloride], for which the “time to formation of a precipitate in FBS” value in series [2] (FBS, serum stability could not be measured) was 1.5 to 2 h.
For the molecule `Cl.NCc1ccc(-c2nnc(-c3ncccn3)nn2)cc1` [Tetrazine 4, (4-(6-(Pyrimidin-2-yl)-1,2,4,5-tetrazin-3-yl)phenyl)methanamine hydrochloride], in series [3], the “cycloaddition kinetics with NB compared to hydrogen substituted tetrazine 1” value is on record as “faster kinetics”. For the same molecule, the “relative serum stability” value in series [2] is on record as “least stable”.
As for `Cc1nnc(CCCCCN)nn1.Cl` [Tetrazine 6, 5-(6-Methyl-1,2,4,5-tetrazin-3-yl)pentan-1-amine hydrochloride], the “aqueous solubility” value in series [1] is “extremely water soluble”. Moreover, the “cycloaddition kinetics with NB compared to hydrogen substituted tetrazine 1” value in series [3] is on record as “slower cycloaddition reactions”. In addition, the “relative serum stability” value in series [2] was “best serum stability”. The “relative cycloaddition kinetics with TCO” value in series [4] is on record as “slowest reaction kinetics”.
